By IC50 is commonly meant the concentration at which inhibition is half-maximal.

The target of the test is HIV-1 pNL4-3 integrase (Human immunodeficiency virus type 1 group M subtype B (isolate NY5) (HIV-1), UniProt P12497). Briefly: Determination of enzyme (HIV integrase) inhibitory activity. In kind it is biochemical. Particulars: calculated from inhibition rate (fluorescence). The procedure, abridged: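 Full-length pNL4-3 integrase from E. coli (0.75 μM stock) reacted 60 min at 37° C with compound and biotinylated donor DNA bound to streptavidin plates, in MOPS buffer with 5 mM MgCl2 and 10% DMSO. Digoxigenin-labelled target DNA (25 nM stock) then added for 20 min; strand transfer read by peroxidase anti-digoxigenin fluorescence (Ex 325/Em 420 nm).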
Regarding `CC(C)N1C[C@@](C)(C(=O)N(C)C)n2cc(-c3nnc(Cc4ccc(F)cc4F)s3)c(=O)c(O)c2C1=O` [Example 171], the half-maximal inhibitory concentration (IC50) is 16 nM.
For `CC(C)N1C[C@](C)(CN(C)S(C)(=O)=O)n2cc(-c3nnc(Cc4ccc(F)cc4F)s3)c(=O)c(O)c2C1=O` [Example 210] the value was 23 nM; for `COC[C@@H]1Cn2cc(-c3nnc(Cc4ccc(F)cc4)s3)c(=O)c(O)c2C(=O)N1C(C)C1CC1` (some centres unmarked) [Example 206], 5.9 nM; for `CNC(=O)[C@]1(C)CN(C(C)C)C(=O)c2c(O)c(=O)c(-c3ncc(Cc4ccc(F)cc4)s3)cn21` [Example 227], 13 nM.
As to `COCCOCC1(C)CN(C(C)C)C(=O)c2c(O)c(=O)c(-c3ncc(Cc4ccc(F)cc4F)s3)cn21` (centres unmarked) [Example 122], the IC50 is 19 nM.
With `CCN(C)C(=O)[C@]1(COC)CN(C(C)C)C(=O)c2c(O)c(=O)c(-c3nnc(Cc4ccc(F)cc4)s3)cn21` [Example 396], the IC50 was 15 nM.
In the case of `CN(C)C(=O)[C@@]1(C)CN(C)C(=O)c2c(O)c(=O)c(-c3ncc(Cc4ccc(F)cc4)s3)cn21` [Example 314] it was 7.9 nM.
Regarding `CO[C@@H]1CCN(C(=O)[C@@]2(C)CN(C(C)C)C(=O)c3c(O)c(=O)c(-c4ncc(Cc5ccc(F)cc5)s4)cn32)C1` [Example 213], the IC50 is 15 nM.
With `COCCOC[C@@H]1Cn2cc(-c3nnc(Cc4ccc(F)cc4)s3)c(=O)c(O)c2C(=O)N1C1CCC1` [Example 84], the half-inhibitory concentration (IC50) was 11 nM.
With `CN(C)C(=O)[C@@]1(C)CN(C2CC2)C(=O)c2c(O)c(=O)c(-c3nnc(Cc4ccc(F)cc4)s3)cn21` [Example 178], the IC50 was 20 nM.
Consider `COCCOC[C@@H]1Cn2cc(-c3nnc(Cc4ccc(F)cc4F)s3)c(=O)c(O)c2C(=O)N1CC(C)C` [Example 48], for which the IC50 is 6.9 nM.
In the case of `CC(=O)NCC1CN(C(C)C)C(=O)c2c(O)c(=O)c(-c3ncc(Cc4ccc(F)cc4F)s3)cn21` (centres unmarked) [Example 67] it was 7.6 nM; in that of `COC[C@@H]1Cn2cc(-c3nnc(Cc4ccc(F)cc4)s3)c(=O)c(O)c2C(=O)N1C(C)C1CC1` (some centres unmarked) [Example 198], 5.7 nM; in that of `COC[C@H]1[C@H](C)N(C(C)C)C(=O)c2c(O)c(=O)c(-c3nnc(Cc4ccc(F)cc4)s3)cn21` [Example 285], 11 nM.
For the compound `CO[C@H](C)[C@H]1CN(C(C)C)C(=O)c2c(O)c(=O)c(-c3ncc(Cc4ccc(F)cc4)s3)cn21` [Example 386], the IC50 is 15 nM.
In the case of `CN(C)C(=O)[C@@]1(C)CN(C)C(=O)c2c(O)c(=O)c(-c3nnc(Cc4ccc(F)cc4F)s3)cn21` [Example 335] it was 9.8 nM.
Regarding `COC[C@H]1CN(C(C)C)C(=O)c2c(O)c(=O)c(-c3nnc(Cc4ccc(C(F)(F)F)cc4)s3)cn21` [Example 244], the half-inhibitory concentration (IC50) was 74 nM.
With `COCC1Cn2cc(-c3ncc(Cc4ccc(F)cc4F)s3)c(=O)c(O)c2C(=O)N1C(C)C` (centres unmarked) [Example 61], the IC50 is 6.6 nM.
For `CC(C)N1C[C@@](C)(C(=O)NC2CC2)n2cc(-c3ncc(Cc4ccc(F)cc4)s3)c(=O)c(O)c2C1=O` [Example 245] the value was 8.1 nM; for `COCCOC[C@@H]1Cn2cc(-c3nnc(Cc4ccc(F)cc4F)s3)c(=O)c(O)c2C(=O)N1CC(C)(C)C` [Example 129], 12 nM; for `C[C@@H](C1CC1)N1C[C@](C)(C(=O)N2CCC2)n2cc(-c3ncc(Cc4ccc(F)cc4)s3)c(=O)c(O)c2C1=O` [Example 273], 14 nM.
With `CC(C)N1CC2(CCOCC2)n2cc(-c3nnc(Cc4ccc(F)cc4F)s3)c(=O)c(O)c2C1=O` [Example 8], the IC50 is 8.9 nM.
In the case of `CCN1C(=O)c2c(O)c(=O)c(-c3nnc(Cc4ccc(F)cc4)s3)cn2C[C@H]1[C@H](C)OC` [Example 332] it was 12 nM; in that of `COC[C@H]1CN(C(C)C)C(=O)c2c(O)c(=O)c(-c3nnc(Cc4ccc(F)cc4C4CC4)s3)cn21` [Example 251], 11 nM; in that of `CC(C)NC(=O)CC1CN(C(C)C)C(=O)c2c(O)c(=O)c(-c3ncc(Cc4ccc(F)cc4F)s3)cn21` (centres unmarked) [Example 36], 13 nM.
For the compound `CCOC[C@H]1CN(C(C)C)C(=O)c2c(O)c(=O)c(-c3nnc(Cc4ccc(F)cc4F)s3)cn21` [Example 142], the half-maximal inhibitory concentration (IC50) was 6.4 nM.
On to `CC(C)N1C[C@](C)(C(=O)N2CCCC2)n2cc(-c3nnc(Cc4ccc(F)cc4F)s3)c(=O)c(O)c2C1=O` [Example 170], for which the IC50 is 12 nM.
With `CC(C)N1CC(C)(C(=O)N2CCCCC2)n2cc(-c3ncc(Cc4ccc(F)cc4F)s3)c(=O)c(O)c2C1=O` (centres unmarked) [Example 38], the IC50 is 12 nM.
In the case of `COC[C@H]1CN(C(C)C)C(=O)c2c(O)c(=O)c(-c3nnc(Cc4ccc(Cl)cc4F)s3)cn21` [Example 229], the concentration for half-maximal inhibition (IC50) is 12 nM.
As to `CCO[C@H](CC)[C@H]1CN(C(C)C)C(=O)c2c(O)c(=O)c(-c3nnc(Cc4ccc(F)cc4)s3)cn21` [Example 389], the half-inhibitory concentration (IC50) is 14 nM.
As for `CCN1C(=O)c2c(O)c(=O)c(-c3nnc(Cc4ccc(F)cc4)s3)cn2C[C@]1(C)COCCOC` [Example 323], the IC50 is 14 nM.
Turning to `CC(=O)CC1CN(C(C)C)C(=O)c2c(O)c(=O)c(-c3ncc(Cc4ccc(F)cc4F)s3)cn21` (centres unmarked) [Example 151], the IC50 was 5.4 nM.
With `CC1(C)Cn2cc(-c3nnc(Cc4ccc(F)cc4F)s3)c(=O)c(O)c2C(=O)N1C1CCOC1` (centres unmarked) [Example 70], the half-inhibitory concentration (IC50) was 8.9 nM.
Take `CCCCN1C[C@H](COCCOC)n2cc(-c3nnc(Cc4ccc(F)cc4)s3)c(=O)c(O)c2C1=O` [Example 362]: the IC50 was 10 nM.
`CCN1C(=O)c2c(O)c(=O)c(-c3nnc(Cc4ccc(F)cc4)s3)cn2C[C@@]1(C)COC` [Example 270]: the IC50 was 9.5 nM.

Values taken from patent US10065950B2, “Substituted thiazoles as HIV integrase inhibitors” (Japan Tobacco Inc., priority 2010, dated 2018).
